Calls of active or inactive are those of the source.
Key:
[1] = system: Candida albicans; assay: growth inhibition of resistant C. albicans, dose response, CaCi-8 strain, fluconazole, dry powder, set 4 (AID 488950); format: functional, organism-based
[2] = biological target: T1, Protein skinhead-1 (Caenorhabditis elegans, UniProt P34707); format: functional
T1 sequence (P34707 whole entry): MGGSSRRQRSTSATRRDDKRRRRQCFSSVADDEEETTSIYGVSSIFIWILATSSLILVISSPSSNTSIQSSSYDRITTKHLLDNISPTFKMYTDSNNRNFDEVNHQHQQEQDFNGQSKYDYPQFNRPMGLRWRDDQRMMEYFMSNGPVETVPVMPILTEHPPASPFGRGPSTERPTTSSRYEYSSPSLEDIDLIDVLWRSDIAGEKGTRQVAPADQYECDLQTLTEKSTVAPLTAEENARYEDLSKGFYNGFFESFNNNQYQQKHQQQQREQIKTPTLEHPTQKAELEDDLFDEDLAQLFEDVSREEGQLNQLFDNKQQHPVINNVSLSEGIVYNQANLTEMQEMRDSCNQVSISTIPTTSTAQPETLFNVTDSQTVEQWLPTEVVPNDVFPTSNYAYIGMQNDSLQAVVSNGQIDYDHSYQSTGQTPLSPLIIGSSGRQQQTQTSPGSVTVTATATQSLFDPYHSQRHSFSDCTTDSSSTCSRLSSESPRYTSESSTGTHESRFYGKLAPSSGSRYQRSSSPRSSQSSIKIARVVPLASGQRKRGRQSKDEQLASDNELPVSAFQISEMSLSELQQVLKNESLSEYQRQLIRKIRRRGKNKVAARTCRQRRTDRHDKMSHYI

[3] = biological target: Glucose-6-phosphate 1-dehydrogenase (Homo sapiens, UniProt P11413); assay: human G6PD enzyme inhibitors, dose response, selectivity assay for P. falciparum G6PD inhibitor project, biochemical, fluorescence (AID 504792); format: functional
[4] = biological target: T2, Apoptotic protease-activating factor 1 (Homo sapiens, UniProt O14727); format: functional
T2 sequence (O14727 whole entry): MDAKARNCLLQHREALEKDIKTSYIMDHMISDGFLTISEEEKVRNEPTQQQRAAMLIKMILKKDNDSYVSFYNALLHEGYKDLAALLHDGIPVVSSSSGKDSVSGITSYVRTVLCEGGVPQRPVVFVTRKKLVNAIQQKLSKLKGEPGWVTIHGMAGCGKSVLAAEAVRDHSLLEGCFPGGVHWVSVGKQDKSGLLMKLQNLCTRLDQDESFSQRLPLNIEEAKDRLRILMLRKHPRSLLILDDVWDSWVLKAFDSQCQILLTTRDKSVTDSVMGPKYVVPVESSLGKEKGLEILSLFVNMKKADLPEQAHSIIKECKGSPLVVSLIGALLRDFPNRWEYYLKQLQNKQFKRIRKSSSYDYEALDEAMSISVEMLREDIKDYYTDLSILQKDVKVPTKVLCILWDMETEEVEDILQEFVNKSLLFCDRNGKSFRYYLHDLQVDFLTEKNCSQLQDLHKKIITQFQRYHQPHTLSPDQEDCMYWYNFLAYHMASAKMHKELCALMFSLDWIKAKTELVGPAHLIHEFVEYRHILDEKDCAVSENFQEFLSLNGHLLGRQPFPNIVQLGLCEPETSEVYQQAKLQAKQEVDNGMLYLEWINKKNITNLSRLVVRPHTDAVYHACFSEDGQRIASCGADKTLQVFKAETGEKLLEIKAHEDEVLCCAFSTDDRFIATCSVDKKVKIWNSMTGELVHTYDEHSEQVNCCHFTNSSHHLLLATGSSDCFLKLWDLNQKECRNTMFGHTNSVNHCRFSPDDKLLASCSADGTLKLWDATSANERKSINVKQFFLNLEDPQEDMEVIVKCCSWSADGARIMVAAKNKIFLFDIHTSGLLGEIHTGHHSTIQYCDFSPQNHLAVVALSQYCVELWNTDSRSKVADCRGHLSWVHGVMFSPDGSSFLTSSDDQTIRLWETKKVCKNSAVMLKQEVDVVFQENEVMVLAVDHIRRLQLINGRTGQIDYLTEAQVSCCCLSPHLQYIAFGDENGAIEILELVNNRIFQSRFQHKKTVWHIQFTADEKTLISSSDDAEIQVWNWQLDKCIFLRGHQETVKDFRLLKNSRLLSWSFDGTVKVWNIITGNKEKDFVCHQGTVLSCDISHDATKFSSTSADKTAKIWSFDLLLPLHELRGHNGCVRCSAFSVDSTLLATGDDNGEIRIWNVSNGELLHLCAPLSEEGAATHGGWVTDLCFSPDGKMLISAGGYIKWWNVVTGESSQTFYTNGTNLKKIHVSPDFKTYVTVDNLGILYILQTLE

[5] = biological target: T3, Ubiquitin-conjugating enzyme E2 N (Homo sapiens, UniProt P61088); format: functional
T3 sequence (P61088 whole entry): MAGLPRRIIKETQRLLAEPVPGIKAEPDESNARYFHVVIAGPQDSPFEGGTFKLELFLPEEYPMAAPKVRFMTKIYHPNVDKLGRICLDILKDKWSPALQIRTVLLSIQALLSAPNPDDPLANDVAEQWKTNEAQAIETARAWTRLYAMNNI

[6] = C. albicans growth with fluconazole, confirmation, fluorescence, retest (AID 2467); format: functional, cell-based
[7] = biological target: T4, DNA repair protein RAD52 homolog (Homo sapiens, UniProt P43351); format: functional, biochemical
T4 sequence (P43351 whole entry): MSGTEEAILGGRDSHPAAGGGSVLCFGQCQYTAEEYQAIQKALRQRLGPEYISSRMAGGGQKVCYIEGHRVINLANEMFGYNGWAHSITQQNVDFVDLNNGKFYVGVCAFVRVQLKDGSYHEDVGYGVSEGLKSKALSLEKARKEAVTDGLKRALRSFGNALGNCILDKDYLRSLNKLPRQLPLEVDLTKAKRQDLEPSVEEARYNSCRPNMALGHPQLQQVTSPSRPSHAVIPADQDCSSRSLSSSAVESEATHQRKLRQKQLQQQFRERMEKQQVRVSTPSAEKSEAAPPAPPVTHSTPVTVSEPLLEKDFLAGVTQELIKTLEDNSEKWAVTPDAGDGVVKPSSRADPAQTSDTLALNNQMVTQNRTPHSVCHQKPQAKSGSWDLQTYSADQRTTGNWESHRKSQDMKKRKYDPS

[8] = biological target: T5, Bcl-2-related protein A1 (Mus musculus, UniProt Q07440); format: functional;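 note: confirmatory dose–response counterscreen on Bfl-1, used to check hits from a UBC13 polyubiquitin inhibitor campaign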
T5 sequence (Q07440 whole entry): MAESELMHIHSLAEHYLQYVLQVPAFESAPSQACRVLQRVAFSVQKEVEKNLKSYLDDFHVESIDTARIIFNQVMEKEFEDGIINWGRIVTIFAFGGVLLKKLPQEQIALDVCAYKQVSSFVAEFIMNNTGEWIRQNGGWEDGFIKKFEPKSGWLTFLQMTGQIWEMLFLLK

[9] = NIH-3T3 fibroblast cytotoxicity, dose response, cytotoxicity control, cell-based, fluorescence, Alamar Blue, secondary assay (AID 2327); format: functional;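 note: NIH-3T3 mouse fibroblasts cultured with fluconazole at 8 µg/mL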
[10] = biological target: T3, Ubiquitin-conjugating enzyme E2 N; format: functional; remark: listed apart in the source
[11] = system: Escherichia coli; assay: microbe, parasite or virus in culture
[12] = biological target: Cysteine protease ATG4B (Homo sapiens, UniProt Q9Y4P1); format: functional;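 note: Fluorescence-based dose-response confirmation assay measuring inhibition of ATG4B activity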
[13] = biological target: Phospholipase A2 (Homo sapiens, UniProt P04054); format: functional;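 note: confirmatory dose-response counterscreen on phospholipase A2, testing hits that came from an ultra-high-throughput screen for ATG4B inhibitors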
[14] = system: Streptococcus sp. 'group A'; assay: growth inhibition of control SK(-) GAS strain, dose response, counter-screen for streptokinase expression inhibitor project, luminescence, kanamycin, BacTiterGlo, confirmation (AID 1900); format: functional, organism-based
[15] = HEp-2 cell cytotoxicity, dose response, cytotoxicity control for RSV inhibitor project, HTS (AID 2410); format: functional; conditions: human respiratory syncytial virus
[16] = system: Streptococcus; assay: Group A Streptococcus viability loss, dose response, counter-screen for streptokinase expression inhibitor project, luminescence, BacTiterGlo (AID 1915); format: functional, organism-based;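 note: potency for reduction of bacterial viability or growth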
[17] = biological target: T6, Heat shock factor protein 1 (Mus musculus, UniProt P38532); assay: inhibition of MG132-induced HSE-luciferase signal, confirmation, cell-based, NIH3T3, luminescence, dose retest (AID 2382); format: functional;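 note: NIH3T3 fibroblasts with HSF1-driven luciferase reporter stressed by proteasome inhibitor MG132; luminescence from HSF1-driven luciferase expression after 8 hours of MG132 stress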
T6 sequence (P38532 whole entry): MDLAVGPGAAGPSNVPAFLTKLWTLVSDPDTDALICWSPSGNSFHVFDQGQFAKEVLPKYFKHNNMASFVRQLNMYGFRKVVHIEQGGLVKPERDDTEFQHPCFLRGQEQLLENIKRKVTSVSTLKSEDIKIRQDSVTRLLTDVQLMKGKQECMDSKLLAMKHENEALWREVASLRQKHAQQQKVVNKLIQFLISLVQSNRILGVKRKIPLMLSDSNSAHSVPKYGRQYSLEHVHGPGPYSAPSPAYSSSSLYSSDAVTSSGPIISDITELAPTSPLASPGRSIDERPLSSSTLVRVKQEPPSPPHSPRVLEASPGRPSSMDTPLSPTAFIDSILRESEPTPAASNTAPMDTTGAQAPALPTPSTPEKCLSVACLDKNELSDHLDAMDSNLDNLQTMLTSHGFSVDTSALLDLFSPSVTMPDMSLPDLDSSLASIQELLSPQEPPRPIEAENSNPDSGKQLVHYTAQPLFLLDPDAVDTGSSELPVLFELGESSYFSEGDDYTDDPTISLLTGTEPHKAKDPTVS

[18] = biological target: Delta-type opioid receptor (Homo sapiens, UniProt P41143); assay: Counterscreen for agonists of heterodimerization of the mu 1 (OPRM1) and delta 1 (OPRD1) opioid receptors: Luminescence-based cell-based high throughput dose response assay to identify agonists of OPRD1 homodimerization. [Related pubchem assays (depositor defined):AID504326, AID504355, AID504692, AID504904, AID504905]; format: functional
[19] = biological target: Mu-type opioid receptor (Homo sapiens, UniProt P35372); assay: Counterscreen for agonists of heterodimerization of the mu 1 (OPRM1) and delta 1 (OPRD1) opioid receptors: Luminescence-based cell-based high throughput dose response assay to identify agonists of OPRM1 homodimerization.; format: functional;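 note: U2OS cells expressing OPRM1 and beta-arrestin as split beta-galactosidase partners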
[20] = biological target: 5-hydroxytryptamine receptor 5A (Homo sapiens, UniProt P47898); assay: Counterscreen for agonists of OPRM1-OPRD1 heterodimerization: luminescence-based cell-based high throughput dose response assay to identify agonists of 5-hydroxytryptamine (serotonin) 5A receptor (HTR5A). [Related pubchem assays (depositor defined):AID504326, AID504355, AID504692, AID504904, AID504905]; format: functional
5-hydroxytryptamine receptor 5A, sequence (P47898 whole entry): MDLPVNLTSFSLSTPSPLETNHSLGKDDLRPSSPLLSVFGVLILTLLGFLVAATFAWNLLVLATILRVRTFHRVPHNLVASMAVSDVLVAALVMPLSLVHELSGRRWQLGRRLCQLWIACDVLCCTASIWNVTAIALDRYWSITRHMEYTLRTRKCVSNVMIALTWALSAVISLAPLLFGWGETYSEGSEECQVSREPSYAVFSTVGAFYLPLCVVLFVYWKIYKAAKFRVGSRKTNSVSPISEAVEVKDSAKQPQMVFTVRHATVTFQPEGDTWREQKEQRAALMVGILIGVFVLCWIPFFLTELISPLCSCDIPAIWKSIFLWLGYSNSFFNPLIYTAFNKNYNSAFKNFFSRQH

Mu-type opioid receptor, sequence (P35372 whole entry): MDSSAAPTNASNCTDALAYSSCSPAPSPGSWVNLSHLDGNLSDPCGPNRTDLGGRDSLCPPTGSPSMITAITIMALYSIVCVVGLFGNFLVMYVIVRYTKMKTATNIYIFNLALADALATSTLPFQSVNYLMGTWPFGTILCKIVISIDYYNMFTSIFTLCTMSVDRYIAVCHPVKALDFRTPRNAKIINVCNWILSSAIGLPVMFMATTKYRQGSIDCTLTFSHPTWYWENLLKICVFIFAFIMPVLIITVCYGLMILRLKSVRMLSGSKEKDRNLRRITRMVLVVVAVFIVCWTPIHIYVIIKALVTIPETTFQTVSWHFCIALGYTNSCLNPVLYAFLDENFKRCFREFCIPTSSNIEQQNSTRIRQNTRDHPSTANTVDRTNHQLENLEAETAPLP
Cysteine protease ATG4B, sequence (Q9Y4P1 whole entry): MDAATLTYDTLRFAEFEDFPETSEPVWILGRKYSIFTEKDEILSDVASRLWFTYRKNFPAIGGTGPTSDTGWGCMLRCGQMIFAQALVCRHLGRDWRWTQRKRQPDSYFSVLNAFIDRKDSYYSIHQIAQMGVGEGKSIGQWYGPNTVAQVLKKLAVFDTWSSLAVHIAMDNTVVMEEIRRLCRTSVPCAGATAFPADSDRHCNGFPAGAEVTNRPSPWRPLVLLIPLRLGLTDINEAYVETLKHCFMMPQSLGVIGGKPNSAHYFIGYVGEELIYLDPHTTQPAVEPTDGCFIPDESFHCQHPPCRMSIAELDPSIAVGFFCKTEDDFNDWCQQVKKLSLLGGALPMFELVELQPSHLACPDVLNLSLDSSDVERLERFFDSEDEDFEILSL
Phospholipase A2, sequence (P04054 whole entry): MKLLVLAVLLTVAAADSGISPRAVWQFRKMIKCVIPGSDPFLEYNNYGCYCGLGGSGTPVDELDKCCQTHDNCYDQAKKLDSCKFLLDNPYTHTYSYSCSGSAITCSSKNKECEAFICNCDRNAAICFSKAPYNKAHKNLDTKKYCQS
Delta-type opioid receptor, sequence (P41143 whole entry): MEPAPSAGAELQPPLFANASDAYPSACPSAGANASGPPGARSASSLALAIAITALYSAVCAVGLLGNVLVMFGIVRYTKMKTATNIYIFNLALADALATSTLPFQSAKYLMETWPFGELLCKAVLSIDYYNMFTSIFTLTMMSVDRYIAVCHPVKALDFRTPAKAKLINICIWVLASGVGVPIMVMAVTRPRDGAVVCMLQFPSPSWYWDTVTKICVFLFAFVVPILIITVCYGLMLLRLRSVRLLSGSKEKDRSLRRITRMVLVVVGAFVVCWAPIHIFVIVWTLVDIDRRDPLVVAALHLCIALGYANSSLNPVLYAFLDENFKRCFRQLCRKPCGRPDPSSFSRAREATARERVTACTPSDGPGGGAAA
Glucose-6-phosphate 1-dehydrogenase, sequence (P11413 whole entry): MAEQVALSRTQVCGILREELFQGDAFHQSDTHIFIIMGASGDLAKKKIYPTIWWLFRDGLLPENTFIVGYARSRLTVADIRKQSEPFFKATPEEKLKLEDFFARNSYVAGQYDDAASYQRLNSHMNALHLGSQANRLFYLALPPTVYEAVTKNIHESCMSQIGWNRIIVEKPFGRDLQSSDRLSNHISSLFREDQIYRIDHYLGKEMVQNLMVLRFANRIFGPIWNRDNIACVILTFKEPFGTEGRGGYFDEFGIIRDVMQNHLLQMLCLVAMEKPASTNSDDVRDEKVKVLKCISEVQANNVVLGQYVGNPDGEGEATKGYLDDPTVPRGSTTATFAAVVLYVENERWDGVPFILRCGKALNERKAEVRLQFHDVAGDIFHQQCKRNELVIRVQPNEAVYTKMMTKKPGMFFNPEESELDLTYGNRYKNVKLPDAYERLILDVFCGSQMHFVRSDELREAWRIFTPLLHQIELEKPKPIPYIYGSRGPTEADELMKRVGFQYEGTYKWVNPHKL

CCCCNC(=O)N1CCN(c2ccnc3cc(Cl)ccc23)CC1
AC50 [1]: 23 µM (active)

Cc1ccc2nc(-c3ccc(NC(S)=NC4CC(C)(C)NC(C)(C)C4)cc3)sc2c1
IC50 [2]: 35.1 µM (active)
IC50 [3]: > 80 µM (inactive)
IC50 [4]: 43.6 µM (active)
IC50 [5]: 16.8 µM (active)
EC50 [6]: > 38 µM (not active)
AC50 [7]: 4.95 µM (active)
IC50 [8]: > 20 µM (inactive)
EC50 [9]: > 150 µM (inactive)
IC50 [10]: > 20 µM (inactive)

CCN(CC)S(=O)(=O)c1ccc(=O)n(CC(=O)N2Cc3ccccc3CC2C(N)=O)c1 (stereo unspecified)
AC50 [11]: 116 µM (active)

O=C(O)CC/C(=C\c1ccc(Cl)c([N+](=O)[O-])c1)c1nc2ccccc2s1
IC50 [12]: 14.3 µM (active)
IC50 [13]: 12.3 µM (active)

COc1c(N2CCN(C(S)=NC3CC4CCC3C4)C(C)C2)c(F)cc2c(=O)c(C(=O)O)cn(C3CC3)c12 (stereo unspecified)
AC50 [11]: 2.64 µM (active)
EC50 [14]: 5.85 µM (active)
CC50 [15]: 9.91 µM (active)
EC50 [16]: 3.77 µM (active)
EC50 [17]: 17 µM (active)

COc1ccccc1CN1CCN(C(CC(C)C)c2nnnn2Cc2cccs2)CC1 (stereo unspecified)
EC50 [18]: > 92.5 µM (inactive)
EC50 [19]: > 92.5 µM (inactive)
EC50 [20]: > 92.5 µM (inactive)

O=C1OC(c2cccs2)=N/C1=C\c1ccc(-c2cccc(Cl)c2)o1
IC50 [12]: 14.8 µM (active)
IC50 [13]: 0.605 µM (active)

CN(C)C(CNC(=O)c1ccc2ccccc2c1)c1ccco1 (stereo unspecified)
EC50 [18]: > 92.5 µM (inactive)
EC50 [19]: > 92.5 µM (inactive)
EC50 [20]: > 92.5 µM (inactive)
